Experimental data published in BindingDB's records for doi:10.1016/j.bioorg.2016.03.001 (Jishou University, 2016).

Molecular target: Alpha-glucosidase MAL12 (Saccharomyces cerevisiae (strain ATCC 204508 / S288c), UniProt P53341)
Test: In vitro Assay of alpha-Glucosidasee Inhibitory Activity
Conditions: pH 6.8
Experimental: The test compounds were dissolved in DMSO to prepare the required distributing concentration. α-Glucosidase inhibitory activity was assayed by using 50 mM phosphate buffer (pH 6.8) at 37 °C. The enzymatic reaction mixture composed of 20 µL α-glucosidase (0.2 U), 10 µL of various concentrations of test compounds and 140 µL of phosphate buffer was incubated at 37 °C for 10 min. Then 0.5 mM p-nitrophenyl α-D-glucopyranoside (30 µL) was added to the mixture as a substrate. After further incubation at 37 °C for 30 min. The absorbance was measured spectrophotometrically at 405 nm. The sample solution was replaced by DMSO as a control. Acarbose was used as a positive control. All experiments were carried out in triplicates.

Sequence of Alpha-glucosidase MAL12 (P53341 whole entry): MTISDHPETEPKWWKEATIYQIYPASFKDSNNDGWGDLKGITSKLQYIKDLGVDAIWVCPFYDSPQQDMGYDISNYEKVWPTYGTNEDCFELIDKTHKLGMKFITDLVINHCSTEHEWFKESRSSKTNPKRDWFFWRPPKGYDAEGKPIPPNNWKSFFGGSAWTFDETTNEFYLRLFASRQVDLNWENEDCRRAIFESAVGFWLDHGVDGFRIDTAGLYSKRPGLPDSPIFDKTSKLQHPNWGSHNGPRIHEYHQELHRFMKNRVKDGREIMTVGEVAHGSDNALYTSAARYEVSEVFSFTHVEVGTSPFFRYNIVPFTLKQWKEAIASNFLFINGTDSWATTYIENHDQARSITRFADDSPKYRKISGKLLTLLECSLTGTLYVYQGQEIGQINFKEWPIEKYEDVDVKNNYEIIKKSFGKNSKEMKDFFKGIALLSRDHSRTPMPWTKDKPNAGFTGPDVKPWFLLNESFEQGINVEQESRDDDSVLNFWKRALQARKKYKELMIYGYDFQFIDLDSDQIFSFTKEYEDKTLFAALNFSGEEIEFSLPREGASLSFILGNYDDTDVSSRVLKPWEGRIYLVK

| SMILES | IC50 |
| --- | --- |
| O=C(N/N=C/c1ccc(O)c(O)c1)c1nc(-c2cc3ccccc3oc2=O)cs1 [(E)-N'-(3,4-Dihydroxybenzylidene)-4-(2-oxo-2H-chromen-3-yl)thiazole-2-carbohydrazide (7k)] | 18.2 µM |
| COc1ccc(/C=N/NC(=O)c2nc(-c3cc4ccccc4oc3=O)cs2)cc1 [(E)-N'-(4-Methoxybenzylidene)-4-(2-oxo-2H-chromen-3-yl)thiazole-2-carbohydrazide (7a)] | 81.7 µM |
| O=C(N/N=C/c1ccc(C(F)(F)F)cc1)c1nc(-c2cc3ccccc3oc2=O)cs1 [(E)-4-(2-Oxo-2H-chromen-3-yl)-N'-(4-(trifluoromethyl)benzylidene)thiazole-2-carbohydrazide (7o)] | 16 µM |
| O=C(N/N=C/c1ccccc1F)c1nc(-c2cc3ccccc3oc2=O)cs1 [(E)-N'-(2-Fluorobenzylidene)-4-(2-oxo-2H-chromen-3-yl)thiazole-2-carbohydrazide (7p)] | 23.6 µM |
| O=C(N/N=C/c1cccc(F)c1)c1nc(-c2cc3ccccc3oc2=O)cs1 [(E)-N'-(3-Fluorobenzylidene)-4-(2-oxo-2H-chromen-3-yl)thiazole-2-carbohydrazide (7q)] | 22.6 µM |
| O=C(N/N=C/c1ccc(O)c(F)c1)c1nc(-c2cc3ccccc3oc2=O)cs1 [(E)-N'-(3-Fluoro-4-hydroxybenzylidene)-4-(2-oxo-2Hchromen-3-yl)thiazole-2-carbohydrazide (7g)] | 16.6 µM |
| O=C(N/N=C/c1ccc(Cl)cc1)c1nc(-c2cc3ccccc3oc2=O)cs1 [(E)-N'-(4-Chlorobenzylidene)-4-(2-oxo-2H-chromen-3-yl)thiazole-2-carbohydrazide (7m)] | 10.6 µM |
| O=C(N/N=C/c1cccc(Br)c1)c1nc(-c2cc3ccccc3oc2=O)cs1 [(E)-N'-(3-bromobenzylidene)-4-(2-oxo-2H-chromen-3-yl)thiazole-2-carbohydrazide (7r)] | 14 µM |
| COc1ccccc1/C=N/NC(=O)c1nc(-c2cc3ccccc3oc2=O)cs1 [(E)-N'-(2-Methoxybenzylidene)-4-(2-oxo-2H-chromen-3-yl)thiazole-2-carbohydrazide (7s)] | 64.3 µM |
| O=C(N/N=C/c1cccc(Cl)c1)c1nc(-c2cc3ccccc3oc2=O)cs1 [(E)-N'-(3-Chlorobenzylidene)-4-(2-oxo-2H-chromen-3-yl)thiazole-2-carbohydrazide (7n)] | 12 µM |
| O=C(N/N=C/c1ccccc1O)c1nc(-c2cc3ccccc3oc2=O)cs1 [(E)-N'-(2-Hydroxybenzylidene)-4-(2-oxo-2H-chromen-3-yl)thiazole-2-carbohydrazide (7b)] | 37.2 µM |
| CC(C)(C)c1cc(/C=N/NC(=O)c2nc(-c3cc4ccccc4oc3=O)cs2)c(O)c(C(C)(C)C)c1 [(E)-N'-(3,5-Di-tert-butyl-2-hydroxybenzylidene)-4-(2-oxo-2Hchromen-3-yl)thiazole-2-carbohydrazide (7d)] | 10.2 µM |
| O=C(N/N=C/c1ccc(O)cc1)c1nc(-c2cc3ccccc3oc2=O)cs1 [(E)-N'-(4-Hydroxybenzylidene)-4-(2-oxo-2H-chromen-3-yl)thiazole-2-carbohydrazide (7c)] | 25.2 µM |
| O=C(N/N=C/c1cc(Cl)ccc1O)c1nc(-c2cc3ccccc3oc2=O)cs1 [(E)-N'-(5-Chloro-2-hydroxybenzylidene)-4-(2-oxo-2Hchromen-3-yl)thiazole-2-carbohydrazide (7h)] | 8.23 µM |
| COc1ccc(/C=N/NC(=O)c2nc(-c3cc4ccccc4oc3=O)cs2)c(O)c1 [(E)-N'-(2-Hydroxy-4-methoxybenzylidene)-4-(2-oxo-2Hchromen-3-yl)thiazole-2-carbohydrazide (7i)] | 29.9 µM |
